Results as given in patent US20130267494A1, “1,4-OXAZEPANE DERIVATIVES” (priority 2010, published 2013).
Structures can show the parent of a compound that is named as a salt.

Experiments:
[1] = target: T1, human dopamine transporter (Homo sapiens, UniProt Q01959); experiment: Inhibitory action on human dopamine transporter ([3H]-dopamine uptake in CHO cells); format: cell-based; conditions: CHO, compound 1 μM; relative to inhibitory activity of 100 μM Nomifensine as 100%; read-out: inhibitory rate (%)
T1 construct: expressed in transfected cells
Method in brief: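 CHO-K1 cells stably expressing human dopamine transporter, exposed to compound at 10 μM or 1 μM in HEPES-buffered saline with 0.5% BSA. [3H]-dopamine uptake measured over 60 min by scintillation counting. Activity expressed relative to 100 μM nomifensine as 100%.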

SD female rats = experiment: Measurement of urethral resistance increasing effect (leak point pressure, oral administration); format: in vivo, rat
Method: The urethral resistance increasing effect in rat was measured by a modified method of Matsumoto et al. (WO2009/063992) as follows. That is, SD female rats (CLEA Japan, Inc.) were anesthetized with isoflurane (1.0%; Abbott), and the spinal cord was transected at Th8-9 to avoid the voiding reflex. After laparotomy, an intravesical pressure measurement catheter and a saline infusion catheter (PE-100; Clay Adams) were inserted into the bladder. Thereafter, the abdomen of the rat was closed with aronalpha A “Sankyo” (Daiichi Sankyo). The rat with an inserted catheter was placed in a Bollman cage (KN-326 Bollman cage TYPE III; Natsume). The intravesical pressure measurement catheter was connected to a computer via a pressure transducer (DX-100; Nihon Koden), an amplifier (RPM-6008M; Nihon Koden/303638; SAN-EI), and a multi-channel data analyzer (MP150/MP100; Biopack), and changes in the intravesical pressure were recorded on a hard disc at a frequency of 100 samples/sec. The saline infusion catheter was connected to a 50 mL syringe (Terumo) filled with saline colored with Evans Blue (Wako). The saline was infused into the bladder from the 50 mL syringe filled with saline at a rate of 0.1 mL/sec by using an infusion pump (Kds100; KD Scientific). When the saline leaked from the urethral orifice, infusion was discontinued, and the saline in the bladder was released. The maximum pressure observed during infusion of saline into the bladder and leakage thereof was taken as an LPP (Leak point pressure) value. The measurement was repeated until the LPP value was stabilized, and an average of continuous three stable LPP values was taken as the result. In addition, the measurement of drug effect was started 1 hr after the animal was placed in the Bollman cage. The LPP value (Pre value) was measured, a drug was orally administered, and the measurement of LPP value (Post value) was again started 15 min, 30 min, 1 hr, 2 hr and 4 hr after administration. The urethral resistance increasing effect by the drug was shown by the difference between the LPP value (Post value) and LPP value (Pre value). The drug was orally administered at 2.0 mL/kg, using 0.5% methylcellulose as a vehicle. For detection of a significant difference in the urethral resistance increasing effect by the drug as compared to the vehicle, the following method was used. For comparison of 3 or more groups, the Williams' test was used for a parametric test, and the Shirley-Williams' test was used for a non-parametric test. For comparison of 2 groups, the Student's t-test was used for a parametric test, and the […] was used for a non-parametric test.

T1 sequence (Q01959 whole entry): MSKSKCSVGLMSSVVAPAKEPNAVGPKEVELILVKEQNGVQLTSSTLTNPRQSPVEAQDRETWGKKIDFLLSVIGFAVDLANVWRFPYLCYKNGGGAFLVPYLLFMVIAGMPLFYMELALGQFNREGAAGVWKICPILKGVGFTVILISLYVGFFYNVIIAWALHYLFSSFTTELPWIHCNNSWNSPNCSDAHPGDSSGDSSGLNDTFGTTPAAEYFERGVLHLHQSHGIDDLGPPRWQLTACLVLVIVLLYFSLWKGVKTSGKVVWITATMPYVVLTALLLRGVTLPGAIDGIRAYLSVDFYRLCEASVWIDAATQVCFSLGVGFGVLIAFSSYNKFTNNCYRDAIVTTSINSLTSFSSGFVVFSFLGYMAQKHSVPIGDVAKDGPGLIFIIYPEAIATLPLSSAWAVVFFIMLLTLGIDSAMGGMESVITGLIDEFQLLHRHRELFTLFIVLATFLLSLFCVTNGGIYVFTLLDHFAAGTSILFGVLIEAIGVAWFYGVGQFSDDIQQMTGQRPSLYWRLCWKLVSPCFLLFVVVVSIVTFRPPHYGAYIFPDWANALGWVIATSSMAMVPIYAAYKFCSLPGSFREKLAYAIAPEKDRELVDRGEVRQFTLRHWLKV

SMILES | inhibition at 1 µM [1] [%] | urethral resistance increasing effect (cmH2O) (SD female rats; 3.0 mg/kg oral, 15 min later) | urethral resistance increasing effect (cmH2O) (SD female rats; 3.0 mg/kg oral, 30 min later) | urethral resistance increasing effect (cmH2O) (SD female rats; 10.0 mg/kg oral, 15 min later) | urethral resistance increasing effect (cmH2O) (SD female rats; 10.0 mg/kg oral, 30 min later) | urethral resistance increasing effect (cmH2O) (SD female rats; 30.0 mg/kg oral, 15 min later) | urethral resistance increasing effect (cmH2O) (SD female rats; 30.0 mg/kg oral, 30 min later)
O=c1[nH]c(-c2cccnc2O[C@@H]2CNCCO[C@H]2c2ccc(Cl)c(F)c2)no1 [Example 556, 3-(2-{[(6R,7S)-7-(4-chloro-3-fluorophenyl)-1,4-oxazepan-6-yl]oxy}pyridin-3-yl)-1,2,4-oxadiazol-5(4H)-one monohydrochloride] | 71 | 6.0 ± 2.0 | 5.0 ± 2.9 | 13.4 ± 1.7 | 10.6 ± 1.8 | 17.8 ± 3.4 | 17.5 ± 2.3
O=c1[nH]c(-c2ccccc2O[C@@H]2CNCCO[C@H]2c2ccc(Cl)c(F)c2)no1 [Example 577, 3-(2-{[(6R, 7S)-7-(4-chloro-3-fluoro-phenyl)-1,4-oxazepan-6-yl]oxy}phenyl)-1,2,4-oxadiazol-5(4H)-one] | 53 | 14.3 ± 3.0 | 13.1 ± 3.1 | 18.7 ± 1.8 | 15.4 ± 1.5 | – | –
O=c1[nH]c(-c2ncccc2O[C@@H]2CNCCO[C@H]2c2ccc(Cl)c(F)c2)no1 [Example 584, 3-(3-{[(6R, 7S)-7-(4-chloro-3-fluorophenyl)-1,4-oxazepan-6-yl]oxy}pyridin-2-yl)-1,2,4-oxadiazol-5(4H)-one] | 57 | 9.5 ± 3.5 | 7.2 ± 2.6 | 18.4 ± 3.4 | 16.2 ± 3.3 | – | –
